Measurements reported in patent publication US5217975A (priority 1989, dated 1993).
Read-outs that look alike come from different tables or passages of the source.

Experiments:
muscarinic receptors [1] = experiment: Radioligand binding: displacement of muscarinic agonist 3H-Oxotremorine-M (3H-OXO-M), rat cerebral cortex; parameters: species or system Hooded Lister rats; details: displacement of 2 nM 3H-OXO-M, 2 mM magnesium chloride, 37° C., 30 min
muscarinic receptors [2] = type: binding, Hooded Lister rats; details: displacement of 0.27 nM 3H-QNB, rat cerebral cortex, 37° C., 30 min

Row | SMILES | IC50 (muscarinic receptors [1]) [nM] | IC50 (muscarinic receptors [2]) [nM]
1 | Cn1ncc(C2CN3CCC2CC3)n1 (racemic) [Example E11] | 56 | 6550
2 | Cn1ncc([C@H]2CN3CC[C@@H]2C3)n1 (relative stereo) [Example E15, (±) endo-3-(2-Methyl-1,2,3-triazol-4-yl)-1-azabicyclo [2.2.1]heptane] | 10.5 | 18500
3 | Cn1nnc([C@H]2CN3CC[C@@H]2C3)n1 (relative stereo) [Example E6, (±) endo-3-(2-Methyltetrazol-5-yl)-1-azabicyclo-[2.2.1]heptane] | 324 | 40000
4 | Cn1ncc([C@@H]2CN3CC[C@@H]2C3)n1 (relative stereo) [Example E14, (±) exo-3-(2-Methyl-1,2,3-triazol-4-y1)-1-azabicyclo 2.2.1]heptane] | 5.6 | 5700
5 | CCn1nnc(C2CN3CCC2CC3)n1 (racemic) [Example E9, (±) 3-(2-Ethyltetrazol-5-yl)-1-azabicyclo[2.2.2]octane] | 1000 | 8300
6 | Cn1nnc(C23CCCN(CC2)C3)n1 (racemic) [Example E3, (±) 5-(2-Methyltetrazol-5-yl)-1-azabicyclo[3.2.1]octane] | 100 | 8200
7 | Cn1nnnc1[C@@H]1CN2CC[C@@H]1C2 (relative stereo) [Example E5, (±) exo-3-(1-Methyltetrazol-5-yl)-1-azabicyclo-[2.2.1]heptane] | 349 | 95000
8 | Cn1nnc(C23CCN(CC2)C3)n1 [Example E8, 4-(2-Methyltetrazol-5-yl)-1-azabicyclo2.2.11 heptane] | 250 | 56000
9 | Cn1ncc(C23CCCN(CC2)C3)n1 (racemic) [Example E1, (±) 5-(2-Methyl-1,2,3-triazol-4-yl)-1-azabicyclo-[3.2.1]octane] | 14.2 | 3000
10 | Cn1nncc1C1CN2CCC1CC2 (racemic) [Example E13] | 750 | 38000
11 | Cn1nnc([C@@H]2CN3CC[C@@H]2C3)n1 (relative stereo) [Example E4, (±) exo-3-(2-Methyltetrazol-5-yl)-1-azabicyclo-[2.2.1]heptane] | 11.5 | 3700
12 | CCn1ncc(C23CCN(CC2)C3)n1 [Example E16] | 440 | 15800
13 | Cn1ncc(C23CCN(CC2)C3)n1 [Example E10, 4-(2-Methyl-1,2,3-triazol-4-yl)-1-azabicyclo[2.2.1]-heptane] | 32 | 20000
14 | CCn1ncc([C@@H]2CN3CC[C@@H]2C3)n1 (relative stereo) [Example E19, (±) exo-3-(2-Ethyl-1.2.3-triazol-4-yl)-1-azabicyclo [2.2.1]heptane] | 540 | 2200
15 | CCn1nnc([C@@H]2CN3CC[C@@H]2C3)n1 (relative stereo) [Example E18, (±) exo-3-(2-Ethyltetrazol-5-yl)-1-azabicyclo[2.2.1]heptane] | 400 | 5500
16 | Cn1nnc(C2CN3CCC2CC3)n1 (racemic) [Example E2, (±) 3-(2-Methyltetrazol-5-yl)-1-azabicyclo[2.2.2]octane] | 230 | 5700
